According to PubChem BioAssay AID1919014 (Molecular Pharmacology Branch, DTP, NCI, 2023):
Where “and” joins values, the source holds several entries; their conditions need not be identical. Equal entries are not always repeated.

System: NCI-H1341 complex spheroids, percent test/control
Test: Anticancer human tumor NCI-H1341 cell line growth inhibition [AhR];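 further: spheroids exposed to agents for seven days before readout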
Details: for viability, T/C: stronger effect = lower value
How it was run: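 Complex tumor spheroids co-cultured with HUVEC and human MSC stroma; AhR antagonists tested in combination with standard-of-care and investigational agents. Top concentration at or near clinical Cmax (else 10 microM), half-log dilutions; growth expressed as percent test/control.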

[1] = curve of first compound, second compound 0.1 µM
[2] = curve of first compound, second compound 0.316 µM
[3] = curve of first compound, second compound 1 µM
[4] = curve of first compound, second compound 3.16 µM
[5] = curve of first compound, second compound 10 µM
[6] = second compound 0.1 µM, first compound 0.000949 µM
[7] = second compound 0.1 µM, first compound 0.003 µM
[8] = second compound 0.1 µM, first compound 0.00949 µM
[9] = second compound 0.1 µM, first compound 0.03 µM
[10] = second compound 0.1 µM, first compound 0.0949 µM
[11] = second compound 0.1 µM, first compound 0.3 µM
[12] = second compound 0.316 µM, first compound 0.000949 µM
[13] = second compound 0.316 µM, first compound 0.003 µM
[14] = second compound 0.316 µM, first compound 0.00949 µM
[15] = second compound 0.316 µM, first compound 0.03 µM
[16] = second compound 0.316 µM, first compound 0.0949 µM
[17] = second compound 0.316 µM, first compound 0.3 µM
[18] = second compound 1 µM, first compound 0.000949 µM
[19] = second compound 1 µM, first compound 0.003 µM
[20] = second compound 1 µM, first compound 0.00949 µM
[21] = second compound 1 µM, first compound 0.03 µM
[22] = second compound 1 µM, first compound 0.0949 µM
[23] = second compound 1 µM, first compound 0.3 µM
[24] = second compound 3.16 µM, first compound 0.000949 µM
[25] = second compound 3.16 µM, first compound 0.003 µM
[26] = second compound 3.16 µM, first compound 0.00949 µM
[27] = second compound 3.16 µM, first compound 0.03 µM
[28] = second compound 3.16 µM, first compound 0.0949 µM
[29] = second compound 3.16 µM, first compound 0.3 µM
[30] = second compound 10 µM, first compound 0.000949 µM
[31] = second compound 10 µM, first compound 0.003 µM
[32] = second compound 10 µM, first compound 0.00949 µM
[33] = second compound 10 µM, first compound 0.03 µM
[34] = second compound 10 µM, first compound 0.0949 µM
[35] = second compound 10 µM, first compound 0.3 µM

With CC(C)CC(NC(=O)C(Cc1ccccc1)NC(=O)c1cnccn1)B(O)O (configuration not stated) + Cc1ccccc1N=Nc1ccc(NC(=O)c2ccnn2C)c(C)c1 the IC50 [1] was 5.09 nM, the IC50 [2] was 5.12 nM and the IC50 [3] was 4.96 nM. The IC50 [4] was 4.3 nM, the IC50 [5] was 3.45 nM and the viability, T/C [6] was 116%. For the same compound, the viability, T/C [7] was 90.2%, the viability, T/C [8] was 2.67% and the viability, T/C [9] was 0.15%. The viability, T/C [10] was 0.06%, the viability, T/C [11] was 0.19% and the viability, T/C [12] was 92.6%. The viability, T/C [13] was 91.1%, the viability, T/C [14] was 2.6% and the viability, T/C [15] was 0.07%. The viability, T/C [16] was 0.07%, the viability, T/C [17] was 0.15% and the viability, T/C [18] was 83%. For the same compound, the viability, T/C [19] was 89.7%, the viability, T/C [20] was 3.18% and the viability, T/C [21] was 0.12%. It also gave a viability, T/C [22] of 0.08%, a viability, T/C [23] of 0.18% and a viability, T/C [24] of 85%. It also gave a viability, T/C [25] of 71.6%, a viability, T/C [26] of 2.5% and a viability, T/C [27] of 0.06%. For the same compound, the viability, T/C [28] was 0.09%, the viability, T/C [29] was 0.2% and the viability, T/C [30] was 50.5%. It also gave a viability, T/C [31] of 62.5%, a viability, T/C [32] of 2.63% and a viability, T/C [33] of 0.39%. The viability, T/C [34] was 0.18% and the viability, T/C [35] was 0.31%.
Work on Nc1ncn(C2CC(O)C(CO)S2)c(=O)n1 (configuration not stated) + Cc1cncc(-c2nc(NCCc3c[nH]c4ccccc34)c3ncn(C(C)C)c3n2)c1 yielded an IC50 [1] greater than 300 nM, an IC50 [2] of 282 nM and an IC50 [3] greater than 300 nM. The IC50 [4] was greater than 300 nM, the IC50 [5] was less than 0.949 nM and the viability, T/C [6] was 102%. For the same compound, the viability, T/C [7] was 82.9%, the viability, T/C [8] was 91.5% and the viability, T/C [9] was 88.3%. The viability, T/C [10] was 67.7%, the viability, T/C [11] was 50.2% and the viability, T/C [12] was 84.9%. For the same compound, the viability, T/C [13] was 89.5%, the viability, T/C [14] was 79.6% and the viability, T/C [15] was 73.8%. It also gave a viability, T/C [16] of 71.8%, a viability, T/C [17] of 47.8% and a viability, T/C [18] of 69.8%. The viability, T/C [19] was 87.3%, the viability, T/C [20] was 80.7% and the viability, T/C [21] was 77.2%. It also gave a viability, T/C [22] of 67.5%, a viability, T/C [23] of 58% and a viability, T/C [24] of 93.7%. It also gave a viability, T/C [25] of 97.9%, a viability, T/C [26] of 86.9% and a viability, T/C [27] of 84.7%. It also gave a viability, T/C [28] of 82.3%, a viability, T/C [29] of 63.8% and a viability, T/C [30] of 45%. It also gave a viability, T/C [31] of 44.2%, a viability, T/C [32] of 42.1% and a viability, T/C [33] of 35.8%. It also gave a viability, T/C [34] of 33.1% and a viability, T/C [35] of 26%.
NS(=O)(=O)OCC1CC(n2ccc3c(NC4CCc5ccccc54)ncnc32)CC1O (configuration not stated) + Cc1cncc(-c2nc(NCCc3c[nH]c4ccccc34)c3ncn(C(C)C)c3n2)c1 gave an IC50 [1] of 108 nM, an IC50 [2] of 83.3 nM and an IC50 [3] of less than 31.6 nM. It also gave an IC50 [4] of less than 31.6 nM, an IC50 [5] of less than 31.6 nM and a viability, T/C (second compound 0.1 µM, first compound 0.0316 µM) of 50.1%. The viability, T/C (second compound 0.1 µM, first compound 0.1 µM) was 52.7%, the viability, T/C (second compound 0.1 µM, first compound 0.316 µM) was 33.8% and the viability, T/C (second compound 0.1 µM, first compound 1 µM) was 15.5%. For the same compound, the viability, T/C (second compound 0.1 µM, first compound 3.16 µM) was 14%, the viability, T/C (second compound 0.1 µM, first compound 10 µM) was 12.5% and the viability, T/C (second compound 0.316 µM, first compound 0.0316 µM) was 54.4%. The viability, T/C (second compound 0.316 µM, first compound 0.1 µM) was 48.5%, the viability, T/C (second compound 0.316 µM, first compound 0.316 µM) was 34.8% and the viability, T/C (second compound 0.316 µM, first compound 1 µM) was 17.6%. For the same compound, the viability, T/C (second compound 0.316 µM, first compound 3.16 µM) was 16.8%, the viability, T/C (second compound 0.316 µM, first compound 10 µM) was 12.4% and the viability, T/C (second compound 1 µM, first compound 0.0316 µM) was 42%. The viability, T/C (second compound 1 µM, first compound 0.1 µM) was 43.6%, the viability, T/C (second compound 1 µM, first compound 0.316 µM) was 35.5% and the viability, T/C (second compound 1 µM, first compound 1 µM) was 18.4%. The viability, T/C (second compound 1 µM, first compound 3.16 µM) was 15.7%, the viability, T/C (second compound 1 µM, first compound 10 µM) was 15.8% and the viability, T/C (second compound 3.16 µM, first compound 0.0316 µM) was 49.4%. For the same compound, the viability, T/C (second compound 3.16 µM, first compound 0.1 µM) was 41.6%, the viability, T/C (second compound 3.16 µM, first compound 0.316 µM) was 41.4% and the viability, T/C (second compound 3.16 µM, first compound 1 µM) was 27.6%. For the same compound, the viability, T/C (second compound 3.16 µM, first compound 3.16 µM) was 19.5%, the viability, T/C (second compound 3.16 µM, first compound 10 µM) was 17% and the viability, T/C (second compound 10 µM, first compound 0.0316 µM) was 26.4%. It also gave a viability, T/C (second compound 10 µM, first compound 0.1 µM) of 31.7%, a viability, T/C (second compound 10 µM, first compound 0.316 µM) of 29.9% and a viability, T/C (second compound 10 µM, first compound 1 µM) of 25.2%. The viability, T/C (second compound 10 µM, first compound 3.16 µM) was 21.4% and the viability, T/C (second compound 10 µM, first compound 10 µM) was 20.1%.
COc1ccc([C@@H](O)c2cc(-c3ncnc4cc(N5CCOCC5)ccc34)c(F)cc2Cl)nn1 was tested, and the viability, T/C (compound 0.0316 µM) was 97.1% and 88.2% and 96%, the viability, T/C (compound 0.1 µM) was 96.2% and 93.7% and 96.8% and the viability, T/C (compound 0.316 µM) was 91.2% and 79.9% and 87.8%. For the same compound, the viability, T/C (compound 1 µM) was 63.1% and 57% and 71.2%, the viability, T/C (compound 3.16 µM) was 31.1% and 22.9% and 32.9% and the viability, T/C (compound 10 µM) was 4.6% and 6.65% and 8.33%. For the same compound, the IC50 (curve of compound) was 1650 nM and 1260 nM and 1880 nM.
